The source of these data is the Kinase Knowledgebase extract (Sharma et al. 2016).

Test [1] concerns the target CDK2 (Human) (UniProt P24941). Description: Enzyme Assay.
Test [2] has as its target CDK2 (Human) (UniProt P24941). Description: Enzyme Assay. The source holds these as a separate data set.

Turning to `O=C1Nc2ccc3ncsc3c2/C1=C/c1cnc[nH]1`, the IC50 (as a rule, the concentration that gives 50% inhibition) was found to be 135 nM against CDK2 (Human) [1] and 94 nM on CDK2 (Human) [2].
The corresponding values for `O=C1Nc2ccc(I)cc2/C1=C1/Nc2ccccc2/C1=N\O` are 379 nM and 1520 nM.
`CC(=O)O/N=C1/C(=C2/C(=O)Nc3cc(Br)ccc32)Nc2ccccc21`: the IC50 against CDK2 (Human) [1] stood at 787 nM; against CDK2 (Human) [2] it was 78300 nM.
In the case of `Cn1cc(C2=C(c3cn(CCCSC(=N)N)c4ccccc34)C(=O)NC2=O)c2ccccc21`, the IC50 came out at 318 nM at CDK2 (Human) [1] and 147 nM at CDK2 (Human) [2].
On to `CCCCCCCCCCCCCCCCn1cc[n+](Cc2ccccc2)c1C`, for which the IC50 at CDK2 (Human) [1] was 24500 nM; against CDK2 (Human) [2], 3910 nM.
As for `O=C1NC(=O)c2c1c1c3ccccc3n3c1c1c2c2ccccc2n1C1CCC3O1`, the IC50 was 871 nM against CDK2 (Human) [1] and 283 nM at CDK2 (Human) [2].
`COc1cc(Nc2ncc3ccn(-c4cccc(CCC#N)c4)c3n2)cc(OC)c1OC`: the IC50 against CDK2 (Human) [1] and against CDK2 (Human) [2] was greater than 25000 nM in each case.
Regarding `N#CCCc1ccc2c(c1)-c1[nH]c3ccc([N+](=O)[O-])cc3c1CC(=O)N2`, the IC50 amounted to 333 nM at CDK2 (Human) [1] and 216 nM against CDK2 (Human) [2].
Taken in the same sequence, the figures for `CCN(CC)C(=O)c1ccc(Nc2nc(OCC3CCCCC3)c3[nH]cnc3n2)cc1` were 4490 nM and 6470 nM.
Take `O=C1Nc2ccccc2C1=C1Nc2ccccc2C1=NOCCC(O)CO` (stereo not drawn): the IC50 against CDK2 (Human) [1] was found to be 930 nM.
In the case of `Cc1ccc([N+](=O)[O-])cc1S(=O)(=O)N(C)/N=C/c1cnc2ccc(Br)cn12`, the figures for the IC50 against CDK2 (Human) [1] and at CDK2 (Human) [2] were 278 nM and 168 nM, respectively.
The corresponding values for `CC(C)n1cnc2c(NCc3ccccc3O)nc(NCCCO)nc21` are 506 nM and 1210 nM.
Taken in the same sequence, the figures for `CC(C)c1[nH]n(-c2c(Cl)cccc2Cl)c2nc(Cc3ccc(OCCO)cc3)nc(=O)c1-2` were 141 nM and 67 nM.
Regarding `NC1=NC(=O)/C(=C2\CCNC(=O)c3[nH]c4ccccc4c32)N1`, the IC50 against CDK2 (Human) [1] stood at 1280 nM.
Turning to `CC(C)[C@H](CO)Nc1nc(Nc2cccc(Cl)c2)c2ncn(C(C)C)c2n1`, the IC50 worked out at 204 nM on CDK2 (Human) [1] and 503 nM against CDK2 (Human) [2].
